The results in this text go back to PMC4107924, “Structure and function study of the complex that synthesizes S-adenosylmethionine” (IUCrJ, 2014).

Holding throughout (type): binding
One experiment concerns the target T1, MATβV2 (Homo sapiens, UniProt Q9NZL9).
T1 construct: gene MAT2B; recombinant in E. coli BL21(DE3), pET-28a(+); His tag cut with thrombin; free subunit
T1 sequence (Q9NZL9 1-323 isoform Q9NZL9-2): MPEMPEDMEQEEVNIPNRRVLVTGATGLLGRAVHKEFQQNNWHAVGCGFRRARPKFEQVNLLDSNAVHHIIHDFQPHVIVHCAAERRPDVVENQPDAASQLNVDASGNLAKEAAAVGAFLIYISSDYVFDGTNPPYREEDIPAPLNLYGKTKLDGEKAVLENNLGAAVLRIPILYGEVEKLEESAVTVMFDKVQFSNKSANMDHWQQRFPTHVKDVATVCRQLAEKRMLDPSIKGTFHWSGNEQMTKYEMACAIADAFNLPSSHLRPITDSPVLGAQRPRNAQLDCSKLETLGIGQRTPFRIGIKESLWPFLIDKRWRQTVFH
The experiment can be described thus: ITC. As to conditions: read-out: NADP → MATβV2.

The target of another experiment is T2, MATβV1 (Homo sapiens, UniProt Q9NZL9).
T2 construct: gene MAT2B; recombinant in E. coli BL21(HC41), HIS-parallel vector; His tag cut with TEV protease; free subunit
The experiment can be described thus: ITC. As to conditions: read-out: NADP → MATβV1.

The target of experiment [1] is T3, MAT(α2)4(βV2)2 (Homo sapiens, UniProt P31153).
T3 construct: gene MAT2A; recombinant in E. coli BL21(DE3), assembled in vitro; His tags cut (TEV for MATα2, thrombin for MATβV2); 258 kDa, 4:2 complex; with Methionine adenosyltransferase 2 subunit beta
The experiment can be described thus: X-ray crystal structure, […] Å. As to conditions: crystal co-crystallized and soaked with AMPPNP and methionine; SAMe also bound; Mg.

Experiment [2] concerns the target T3, MAT(α2)4(βV2)2. The experiment can be described thus: X-ray crystal structure, […] Å. As to conditions: active site at MATα2 dimer interface; Mg; two of four sites occupied; SAMe also in 4ndn.
The target of experiment [3] is T3, MAT(α2)4(βV2)2. The experiment can be described thus: X-ray crystal structure, […] Å. As to conditions: crystal co-crystallized and soaked with ATP only; ADO and PO4 at active site; Mg.

T3 sequence (P31153 whole entry): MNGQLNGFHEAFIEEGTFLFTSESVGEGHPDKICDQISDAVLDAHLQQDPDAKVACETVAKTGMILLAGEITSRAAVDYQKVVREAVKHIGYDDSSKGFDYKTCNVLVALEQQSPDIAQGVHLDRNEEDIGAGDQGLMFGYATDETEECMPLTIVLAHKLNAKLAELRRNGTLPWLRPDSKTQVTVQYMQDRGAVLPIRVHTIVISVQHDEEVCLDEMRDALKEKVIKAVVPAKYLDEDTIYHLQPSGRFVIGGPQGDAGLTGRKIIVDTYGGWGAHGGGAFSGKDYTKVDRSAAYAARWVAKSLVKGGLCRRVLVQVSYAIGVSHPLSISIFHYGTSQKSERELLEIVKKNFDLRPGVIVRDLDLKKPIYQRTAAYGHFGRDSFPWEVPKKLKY
T3 sequence (Q9NZL9 21-334 partner limits assumed): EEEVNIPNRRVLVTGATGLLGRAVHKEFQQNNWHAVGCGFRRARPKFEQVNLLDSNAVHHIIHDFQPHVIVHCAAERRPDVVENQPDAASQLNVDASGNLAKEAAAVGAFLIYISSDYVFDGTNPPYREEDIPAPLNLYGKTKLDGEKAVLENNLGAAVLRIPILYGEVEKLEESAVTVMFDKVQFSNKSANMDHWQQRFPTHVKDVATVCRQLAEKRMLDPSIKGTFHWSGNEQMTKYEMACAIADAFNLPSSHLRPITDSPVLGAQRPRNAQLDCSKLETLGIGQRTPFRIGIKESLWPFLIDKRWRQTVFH
T2 sequence (Q9NZL9 whole entry): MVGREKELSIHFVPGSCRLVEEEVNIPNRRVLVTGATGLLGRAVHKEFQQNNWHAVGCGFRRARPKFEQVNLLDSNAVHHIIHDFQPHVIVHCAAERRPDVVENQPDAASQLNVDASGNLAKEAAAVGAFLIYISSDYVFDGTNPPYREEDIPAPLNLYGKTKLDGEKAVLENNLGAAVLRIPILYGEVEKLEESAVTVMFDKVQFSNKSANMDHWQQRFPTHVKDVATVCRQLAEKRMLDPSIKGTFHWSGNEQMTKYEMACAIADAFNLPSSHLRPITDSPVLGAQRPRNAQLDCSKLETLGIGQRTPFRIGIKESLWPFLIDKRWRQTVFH

Consider `NC(=O)c1ccc[n+]([C@@H]2O[C@H](COP(=O)(O)OP(=O)(O)OC[C@H]3O[C@@H](n4cnc5c(N)ncnc54)[C@H](OP(=O)(O)O)[C@@H]3O)[C@@H](O)[C@H]2O)c1` [NADP], for which the Kd at MATβV2 was 8.93 µM; on MATβV1, 8.55 µM. With `O=P(O)(O)NP(=O)(O)OP(=O)(O)O` [PPNP], the “X-ray crystal structure, 2.35 Å” value on MAT(α2)4(βV2)2 [1] was “Crystal co-crystallized and soaked with AMPPNP and methionine shows SAMe and PPNP”. As for `C[S+](CC[C@H](N)C(=O)O)C[C@H]1O[C@@H](n2cnc3c(N)ncnc32)[C@H](O)[C@@H]1O` (some centres unmarked) [SAMe], the “X-ray crystal structure, 2.6 Å” value at MAT(α2)4(βV2)2 [2] was “the presence of SAMe, adenosine (ADO) or PPNP”. As to `Nc1ncnc2c1ncn2[C@@H]1O[C@H](CO)[C@@H](O)[C@H]1O` [adenosine], the “X-ray crystal structure, 3.3 Å” value at MAT(α2)4(βV2)2 [3] is “shows adenosine molecule (ADO) and PO4 at the active site”.
